From article PMC3160846 (PLoS ONE, 2011) come the findings set out here.

The subject of data set [1] is HT29 cells. Briefly: Clonogenic assay, HT29. Type of data set: cell-based, Human. The note with it: Homo sapiens, HT-29; HT29, colon, p53 mutant, MDR1 negative; read-out: IC50, anti-proliferative activity. As to the method: (§1) Human lung adenocarcinoma A549 cells and NTUB1 bladder cancer cells were maintained in RPMI supplied with 10% fetal bovine serum. […] KB-derived MRP1-expressing cell line, KB-7D, was maintained in growth medium supplemented with 7 µM VP-16.
(§2) Two hundred cells in logarithmic growth phase were seeded in a 6-well plate. The cells were exposed to various concentrations of the test drugs for a three-generation period. At the end of the incubation period, cells were fixed and stained with 50% ethanol containing 0.5% methylene blue for 30 min. The plates were washed five times with water and allowed to air-dry. Colonies were countered manually. […] Each value represents the average of at least three independent experiments run in triplicates.

In data set [2] the test system is HONE-1 cells. Briefly: Clonogenic assay, HONE-1. The note with it: Homo sapiens, HONE1; HONE-1, oral, p53 mutant, MDR1 negative; read-out: IC50, anti-proliferative activity. It is filed as cell-based, Human. As to the method: as §1, §2
Data set [3] has as its system MV4-11 cells. Briefly: Clonogenic assay, MV4-11. It is filed as cell-based, Human. The conditions noted are these: Homo sapiens; MV4-11, leukemia, p53 mutant, MDR1 negative; read-out: IC50, anti-proliferative activity. The method, then:
as §1, §2

The test system of data set [4] is KB cells. Briefly: Endo-replication (polyploidy), microscopy and flow cytometry, KB. It is filed as cell-based, Human. The note with it: 48 h. The method, then: (§3) Cell cycle progression was monitored using flow cytometry. After drug treatment, cells were trypsinized, washed with PBS and fixed in 80% ethanol at −20°C for 1 h. The fixed cells were stained with propidium iodide (containing RNase) at room temperature in the dark for 20 min. The DNA content was determined by a fluorescence-activated cell sorting IV flow cytometer (BD Biosciences, Franklin Lakes, NJ). For each analysis, 10,000 cells were counted and the percentage of cells in each phase was calculated using the ModFit LT software (Verity Software House, Topsham, ME). Experiments were repeated independently at least three times.

Data set [5] concerns KB-VIN10 cells. Briefly: Endo-replication (polyploidy), microscopy and flow cytometry, KB-VIN10. Type of data set: cell-based, Human. The conditions noted are these: for formation of polyploidy (populations >4N): KB-VIN10, 48 h, same concentrations as KB. As to the method:
as §3

Data set [6] relates to KB cells. Briefly: Western blot of Histone H3 phosphorylation and cyclin B1, KB. Type of data set: cell-based, Human. The note with it: 48 h, BPR1K653 12, 24, 36 nM, VX680 170 and 255 nM. As to the method: (§4) Cells were lysed with ice-cold lysis buffer (10 mM Tris, 1 mM EDTA, 1 mM DTT, 60 mM KCl, 0.5% NP-40 and protease inhibitors). […] The resolved proteins were electrophoretically transferred to PVDF membranes (Amersham Life Science, Amersham, U.K.) for Western blot analysis. The membranes were blocked with 5% non-fat milk at room temperature for two hours, washed twice with TBST (1% Tween) and then incubated with either anti-phosphorylated Aurora-A/-B/-C kinase antibody (#2914S, Cell Signaling Technology, Danvers, MA), anti-Aurora-A and -B kinase antibody (#ab1287 and #ab2254, Abcam, Cambridge, MA), anti-phosphorylated Histone H3 antibody (#9701, Cell Signaling Technology, Danvers, MA), anti-Histone H3 antibody (#9715, Cell Signaling Technology, Danvers, MA), anti-Cyclin B1 antibody or anti-Actin antibody (#sc-245 and #sc-130065, Santa Cruz Biotechnology, Santa Cruz, CA) overnight at 4°C. Membranes were washed twice with TBST then subsequently incubated with a horseradish peroxidase-conjugated secondary antibody (Santa Cruz Biotechnology, Santa Cruz, CA) for 1 hour at room temperature. Immunoreactivity was detected by Enhanced Chemiluminescence (Amersham International, Buckingham, U.K.) and autoradiography. Experiments were repeated independently at least two times.

The test system of data set [7] is KB-VIN10 cells. Briefly: Western blot of Histone H3 phosphorylation and cyclin B1, KB-VIN10. The conditions noted are these: for Histone H3 phosphorylation and cyclin B1 expression: KB-VIN10, 48 h, BPR1K653 12, 24, 36 nM, VX680 170 and 255 nM. It is filed as cell-based, Human. The method, then:
as §4

Data set [8] concerns KB-VIN10 cells. Briefly: Apoptosis assays (Annexin-V, caspase-3/-7 imaging, TUNEL, PARP cleavage), KB-VIN10. The conditions noted are these: for apoptosis: phosphatidylserine translocation, caspase-3/-7 activity, DNA fragmentation: KB-VIN10, 48-72 h. Type of data set: cell-based, Human. As to the method: Cells were lysed with ice-cold lysis buffer (10 mM Tris, 1 mM EDTA, 1 mM DTT, 60 mM KCl, 0.5% NP-40 and protease inhibitors). […] The resolved proteins were electrophoretically transferred to PVDF membranes (Amersham Life Science, Amersham, U.K.) for Western blot analysis. […] Membranes were washed twice with TBST then subsequently incubated with a horseradish peroxidase-conjugated secondary antibody (Santa Cruz Biotechnology, Santa Cruz, CA) for 1 hour at room temperature. Immunoreactivity was detected by Enhanced Chemiluminescence (Amersham International, Buckingham, U.K.) and autoradiography. Experiments were repeated independently at least two times.
The cells were analyzed by fluorescence microscopy.
Briefly, cells were cultured in chamber-slides and incubated with test agents for various durations. […] Cells were viewed with a UV-enabled inverted-microscope at an excitation wavelength of 540 nm–560 nm and emission at 610 nm. Experiments were repeated independently at least two times.
Under in vitro conditions, cells were seeded and cultured in 8-well chamber-slides, and treated with various compounds. The treated cells were washed with PBS, fixed with 4% paraformaldehyde for 30 min on ice, and permeabilized with PBST at room temperature. […] Cells were counterstained with DAPI to detect the nucleus, and examined by fluorescence microscopy. Amount of red fluorescence labeled (DNA fragmented) cells were counted and percentage of apoptotic cells were calculated as follows: Amount of the red fluorescence labeled cells ÷ Total cells available×100. Experiments were repeated independently at least two times.

Data set [9] concerns MDR1-expressing KB-VIN10 xenograft. Briefly: KB-VIN10 xenograft in nude mice. It is filed as in vivo. The conditions noted are these: 5 days/week for 3 weeks; for decrease in tumor volume: Day 42, BPR1K653 15 mg/kg or VX680 30 mg/kg i.p. The method, then:
Male nude mice (5–6-weeks-old) were purchased from the National Laboratory Animal Centre (Taiwan R.O.C.). The animals were s.c. implanted with 5×10^5 KB cells or 1×10^6 KB-VIN10 cells mixed with equal volume of Matrigel (Becton Dickinson) in 0.1 mL at one flank per mouse via a 22-gauge needle. Tumor growth was examined twice a week after implantation, and the volume of tumor mass was measured with an electronic caliper and calculated as 1/2×length×width^2 in mm^3.
BPR1K653 was dissolved completely in a vehicle mixture of DMSO/cremophor/saline (1∶2∶7). Selected dose of BPR1K653 was decided base on the following conditions: 1/2 of the dosage that caused noticeable body weight loss (>10%) in the treated mice during toxicity study. […] The control group (5 mice) was treated with vehicle mixture only. Tumor size and animal body weight were measured every three days after drug treatment. Toxicity was evaluated based on the body weight reduction. At the end of the experiments (tumor size of the control >2000 mm^3), animals were euthanized with carbon dioxide.

Each structure is given as a SMILES string.

Take `CN(C)Cc1ccccc1NC(=O)Nc1ccc(CCNc2ncnc3oc(-c4ccccc4)c(Cl)c23)cc1` [BPR1K653]: the IC50 in data set [1] amounted to 12 ± 2 nM; in [2] it was 11 nM; in [3], 5 nM. The “formation of polyploidy (populations >4N)” value in data set [4] and in [5] was “induced the formation of polyploidy” each time. Further, the “Histone H3 phosphorylation and cyclin B1 expression” value in data set [6] is “inhibition of Histone H3 phosphorylation and down-regulation of cyclin B1 expression”; in data set [7], “inhibition of Histone H3 phosphorylation and down-regulation of cyclin B1 expression”. Moreover, the “cleavage of PARP” value in [8] (KB-VIN10, 2× IC50 of KB, 72 h, Western blot) is “cleavage of PARP was only shown”. For the same compound, the “apoptosis: phosphatidylserine translocation, caspase-3/-7 activity, DNA fragmentation” value in data set [8] was “induced the caspase-3/-7 activity and DNA fragmentation”. Besides, the “loss of body weight after treatment” value in data set [9] (15 mg/kg i.p., vs control group) is “less than 10%”. The “decrease in tumor volume” value in data set [9] was ~50%.
Consider `Cc1cc(Nc2cc(N3CCN(C)CC3)nc(Sc3ccc(NC(=O)C4CC4)cc3)n2)[nH]n1` [VX680], for which the figures for the IC50 in [1], in data set [2] and in data set [3] were 160 ± 33 nM, 20 ± 2 nM and 15 ± 4 nM, respectively. In addition, the entries for the “formation of polyploidy (populations >4N)” value in [4] and in [5] were “induced the formation of polyploidy in KB cells” and “not in KB-VIN10 cells”, respectively. The “formation of polyploidy, co-treated with verapamil” value in data set [5] (KB-VIN10, + 10 µM verapamil) is listed as “formation of the polyploidy population was shown”. Further, the “Histone H3 phosphorylation and cyclin B1 expression” value in data set [6] is “inhibited the phosphorylation of Histone H3 and the expression of cyclin B1”; in [7], “could not induce the above molecular changes”. In addition, in data set [7] (KB-VIN10, + verapamil 10 µM), the “Histone H3 phosphorylation and cyclin B1 expression, with verapamil” value is reported as “restore the sensitivity to VX680”. Further, the “apoptosis: phosphatidylserine translocation, caspase-3/-7 activity, DNA fragmentation” value in data set [8] is on record as “not in the MDR1-expressing KB-VIN10 cells”. In addition, the “decrease in tumor volume” value in data set [9] is “did not exhibit significant tumor growth inhibitory effect”.
